Assay results published in patent US20230270692A1, “COMPOUNDS FOR CHRONIC DISORDERS” (Pillai Universal LLC, priority 2020, published 2023).
Read-outs that look alike come from different tables or passages of the source.

Experiments:
[1] = tested on: panel of human normal cell lines; assay: MTT cytotoxicity of anticancer agents on normal cell lines, alone and with Compound I; details: Homo sapiens, read-out: IC50 (average)
Protocol: The cytotoxicity of anticancer agents was studied using a panel of human normal cell lines alone and with the combination of Compound I of the present invention. The cytotoxicity effect was determined by MTT assay. The following cell lines were used: Human epidermal keratinocytes cells (HaCaT), Human dermal fibroblast (HDF), Human bone marrow mesenchymal stem cells (HBMSCs), Human normal hepatocytes cells (THLE2), Human cardiac cells (AC-16), Human intestinal epithelial cells (HIEC-6), Human neuronal cells (SHSY-5Y), Human vascular Endothelial cells (HuVECs), Human lung epithelial cells (Calu-3), Human lung fibroblast (MRC 5).
Next, the cells were treated with anticancer agents in combination with Compound I of the present invention.

[2] = tested on: Pancreatic adenocarcinoma cells (PANC); assay: MTT cell viability of pancreatic cancer cells; format: cell-based, Human; details: Homo sapiens, Pancreatic cancer cell
Protocol: (§1) The synthesized compounds of Formula 1-4 were evaluated for cell proliferation, apoptosis, cell cycle arrest, the generation of reactive oxygen species and calcium were measured using MTT assay and flow cytometry, respectively. The expression of apoptosis- and proliferation-related proteins was determined by western blotting. The effect of molecules on apoptosis-related mRNA expression in cancer cells was detected by RT-PCR.
(§2) Changes in cell morphology were detected by the presence of cell membrane blebbing, chromatin condensation, and formation of apoptotic bodies (FIG. 10A).

normal pancreatic cells = assay: Viability of normal pancreatic cells; format: cell-based, Human; details: at 6 h
Protocol: as §1, §2

[3] = tested on: xenograft nude mice models (triple-negative breast cancer, pancreatic, liver, colon cancer); assay: In vivo metastasis / stage IV tumor studies in xenograft nude mice versus standard drugs
[4] = tested on: xenograft nude mice models (triple-negative breast cancer, pancreatic, liver, colon cancer); details: mouse, in vivo
PANC-1 xenograft = PANC-1 xenograft mouse model; format: in vivo; details: day 5 to day 30; 25 mg/kg gemcitabine, 10 mg/kg Compound I
Protocol: Study Design: A PANC-1 xenograft mouse model was carried out according to the experimental design described in FIG. 21A. Tumor volume was monitored over a 30-day period upon administration of PBS alone (vehicle control), 25 mg/kg gemcitabine, and 10 mg/kg Compound I.

Q: How did the IC50 [1] turn out when `O=c1[nH]cc(F)c(=O)[nH]1` [5-Fluorouracil] was run?
A: 12.9 to 40.5 µM

Q: And the cytotoxicity at 10 µM ([2]; 3 h, read-out: decrease in viable cells)?
A: 30.21 ± 0.21%

Q: What about the IC50 ([2]; PANC cells, after 24 hours of exposure) of the same compound?
A: 5.21 ± 0.19 µM

Q: What about the Toxicity (normal pancreatic cells) of the same compound?
A: 40.32±0.98%

Q: What about the “Antioxidant Activity (increased antioxidant parameters)” value ([3]; mouse, in vivo) of the same compound?
A: 10% of

Q: What about the “Tumor volume (reduction / changes)” value ([3]; mouse, in vivo) of the same compound?
A: 35%

Q: What about the mortality ([3]; nude, mouse, in vivo) of the same compound?
A: 70%

Q: What about the mortality ([3]; treating stage IV cancer) of the same compound?
A: 70%

Q: What about the Toxicity [4] of the same compound?
A: Cardiotoxicity, Hepatotoxicity

Q: With `CCN(CC)CCCC(C)Nc1ccnc2cc(Cl)ccc12` (stereo not shown) [Chloroquine] as the compound, how does the IC50 [1] read?
A: 12.9 to 40.5 µM

Q: Which IC50 [1] does the source give for `COc1cccc2c1C(=O)c1c(O)c3c(c(O)c1C2=O)C[C@@](O)(C(=O)CO)C[C@@H]3O[C@H]1C[C@H](N)[C@H](O)[C@H](C)O1` [Doxorubicin] here?
A: 12.9 to 40.5 µM

Q: For `Nc1ccn([C@@H]2O[C@H](CO)[C@@H](O)C2(F)F)c(=O)n1` [Gemcitabine], which tumor volume (PANC-1 xenograft) is on record?
A: steadily increases

Q: And the IC50 [1]?
A: 12.9 to 40.5 µM

Q: What about the “CSCs (target on CSCs population)” value ([3]; mouse, in vivo) of the same compound?
A: 5% Target on

Q: And the mortality ([3]; nude, mouse, in vivo)?
A: 50%

Q: And the mortality ([3]; treating stage IV cancer)?
A: 50%

Q: And the Toxicity [4]?
A: Developed

Q: With `CCN(CCO)CCCC(C)Nc1ccnc2cc(Cl)ccc12` (stereo not shown) [Hydroxychloroquine] as the compound, how does the IC50 [1] read?
A: 12.9 to 40.5 µM

Q: `CCc1c2c(nc3ccc(OC(=O)N4CCC(N5CCCCC5)CC4)cc13)-c1cc3c(c(=O)n1C2)COC(=O)[C@]3(O)CC` [Irinotecan] was tested. Which IC50 [1] did it give?
A: 12.9 to 40.5 µM

Q: How did the mortality ([3]; nude, mouse, in vivo) turn out when `Nc1cccc2c1CN(C1CCC(=O)NC1=O)C2=O` (stereo not shown) [Revlimid] was run?
A: 100%

Q: What about the mortality ([3]; treating stage IV cancer) of the same compound?
A: 100%

Q: What about the Toxicity [4] of the same compound?
A: Cardiotoxicity, Hepatotoxicity, Toxicity to vital organs and normal tissues

Q: `CC[C@]1(O)C[C@H]2CN(CCc3c([nH]c4ccccc34)[C@@](C(=O)OC)(c3cc4c(cc3OC)N(C=O)[C@H]3[C@@](O)(C(=O)OC)[C@H](OC(C)=O)[C@]5(CC)C=CCN6CC[C@]43[C@@H]65)C2)C1` [Vincristine] was tested. Which IC50 [1] did it give?
A: 12.9 to 40.5 µM

Q: “Avastin: current treatment standard drug, Inhibition of VEGF” was tested. Which “Metastasis (prevention)” value ([3]; mouse, in vivo) did it give?
A: 10%

Q: What about the Toxicity ([3]; mouse, in vivo) of the same compound?
A: Toxic to vital

Q: What about the “Tumor volume (reduction / changes)” value ([3]; mouse, in vivo) of the same compound?
A: 20%

Q: And the mortality ([3]; mouse, in vivo)?
A: 60%

Q: And the mortality ([3]; treating stage IV cancer)?
A: 60%
